Data from US4886785A, “Pyrimidine derivatives, pharmaceutical compositions and method of using same” (Hoffmann-La Roche Inc., priority 1986, dated 1989).

Biological target: herpes simplex virus type 2 (HSV-2) thymidine kinase (Human herpesvirus 2, UniProt P89446)
Assay: Inhibition of herpes simplex virus type 2 (HSV-2) thymidine kinase in vitro (3H-thymidine phosphorylation)
Type: biochemical
Details: thymidine kinase extract, 0.3 μM 3H-thymidine, 5 mM ATP, pH 8, 37° C., 30 minutes
Description: In this test, the assay mixture contains 50 mM Tris-HCl, pH 8, 5 mM magnesium chloride, 5 mM ATP, 0.3 μM ^3 H-thymidine (50 Ci/mmol), suitably diluted thymidine kinase extract and various concentrations of compounds of formula I or tautomers in a total volume of 100 μl. Assays are incubated at 37° C. for 30 minutes and the reaction is terminated by immersion in a boiling water bath for 2 minutes. 85 μl aliquots from each assay are then dried on cellulose paper discs and the unphosphorylated ^3 H-thymidine is removed by washing in 4 mM ammonium formate. The radioactivity remaining bound to the discs is then measured by scintillation spectrophotometry. The degree of inhibition at each concentration of compound of formula I is expressed as a percentage of the control reaction (100%) after substracting a measured blank value which represents the amount of radioactivity bound to the disc from a reaction containing heat inactivated enzymes. The IC50 value, namely the concentration of compound of formula I or tautomer thereof which inhibits enzyme activity by 50%, is then calculated. The results obtained with representative compounds of formula I are compiled in the following Table: […]

Chain of herpes simplex virus type 2 (HSV-2) thymidine kinase (P89446 whole entry): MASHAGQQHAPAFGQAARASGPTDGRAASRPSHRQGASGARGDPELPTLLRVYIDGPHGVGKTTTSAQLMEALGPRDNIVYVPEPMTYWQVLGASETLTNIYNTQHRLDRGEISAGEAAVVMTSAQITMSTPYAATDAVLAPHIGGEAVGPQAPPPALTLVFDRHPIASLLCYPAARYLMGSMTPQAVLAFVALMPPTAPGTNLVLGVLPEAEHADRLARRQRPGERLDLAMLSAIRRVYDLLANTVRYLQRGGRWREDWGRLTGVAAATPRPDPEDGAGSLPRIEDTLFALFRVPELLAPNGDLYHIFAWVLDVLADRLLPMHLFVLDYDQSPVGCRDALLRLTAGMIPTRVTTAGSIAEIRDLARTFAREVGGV

| SMILES | IC50 [nM] |
| --- | --- |
| CCc1cn([C@H]2C[C@H](O)[C@@H](CNCCc3c(Cl)cccc3Cl)O2)c(=O)[nH]c1=O [Example 3b, 5'-[2-(2,6-dichlorophenyl)ethylamino]-2',5'-dideoxy-5-ethyluridine] | 90 |
| CCc1cn([C@H]2C[C@H](O)[C@@H](CNCc3cccc(Cl)c3Cl)O2)c(=O)[nH]c1=O [Example 4b, 5'-(2,3-dichlorobenzylamino)-2',5'-dideoxy-5-ethyluridine] | 60 |
| CCc1cn([C@H]2C[C@H](O)[C@@H](CNCc3c(Cl)cccc3Cl)O2)c(=O)[nH]c1=O [Example 4c, 5'-(2,6-dichlorobenzylamino)-2',5'-dideoxy-5-ethyluridine] | 80 |
